According to paper PMC10885593, “Evidence that inositol 1,4,5-trisphosphate 3-kinase and inositol 1,3,4,5-tetrakisphosphate are negative regulators of platelet function” (Research and Practice in Thrombosis and Haemostasis, 2024):

Key:
Experiment in all cases: competition pull-down with PIP3 beads, Western blot
Type in all cases: binding
[1] = target: T1, BTK (Homo sapiens, UniProt Q06187); details: human platelet NP40 lysate; competes with bead-bound PIP3 (about 800 nM); pH 7.4, 4 °C, 5 mM EDTA, 5 mM EGTA
T1 construct: native full-length protein in NP40 lysate of washed human platelets, captured on PIP3 beads, Western blot read-out
T1 sequence (Q06187 2-659): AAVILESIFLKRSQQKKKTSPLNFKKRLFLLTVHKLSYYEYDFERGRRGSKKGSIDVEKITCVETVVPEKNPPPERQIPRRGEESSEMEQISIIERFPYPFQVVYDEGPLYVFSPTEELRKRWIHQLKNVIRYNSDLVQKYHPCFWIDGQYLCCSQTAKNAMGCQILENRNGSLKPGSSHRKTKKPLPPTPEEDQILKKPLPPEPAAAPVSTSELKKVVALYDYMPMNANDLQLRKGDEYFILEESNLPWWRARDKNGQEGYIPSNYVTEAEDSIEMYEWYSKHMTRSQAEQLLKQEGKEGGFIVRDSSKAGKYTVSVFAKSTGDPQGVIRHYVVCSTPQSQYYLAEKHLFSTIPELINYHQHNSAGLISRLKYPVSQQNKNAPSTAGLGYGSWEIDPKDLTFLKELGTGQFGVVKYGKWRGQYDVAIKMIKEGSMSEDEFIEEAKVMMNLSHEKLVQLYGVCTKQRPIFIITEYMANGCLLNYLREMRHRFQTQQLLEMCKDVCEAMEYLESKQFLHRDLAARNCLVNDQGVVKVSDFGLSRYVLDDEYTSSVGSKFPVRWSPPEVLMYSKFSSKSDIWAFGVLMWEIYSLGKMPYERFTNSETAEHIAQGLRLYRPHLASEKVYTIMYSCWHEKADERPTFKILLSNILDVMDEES

[2] = target: T2, RASA3 (Homo sapiens, UniProt Q14644); details: read-out: % inhibition of extraction at 40 μM
T2 construct: native full-length protein in NP40 lysate of washed human platelets, captured on PIP3 beads, Western blot read-out
T2 sequence (Q14644 2-834): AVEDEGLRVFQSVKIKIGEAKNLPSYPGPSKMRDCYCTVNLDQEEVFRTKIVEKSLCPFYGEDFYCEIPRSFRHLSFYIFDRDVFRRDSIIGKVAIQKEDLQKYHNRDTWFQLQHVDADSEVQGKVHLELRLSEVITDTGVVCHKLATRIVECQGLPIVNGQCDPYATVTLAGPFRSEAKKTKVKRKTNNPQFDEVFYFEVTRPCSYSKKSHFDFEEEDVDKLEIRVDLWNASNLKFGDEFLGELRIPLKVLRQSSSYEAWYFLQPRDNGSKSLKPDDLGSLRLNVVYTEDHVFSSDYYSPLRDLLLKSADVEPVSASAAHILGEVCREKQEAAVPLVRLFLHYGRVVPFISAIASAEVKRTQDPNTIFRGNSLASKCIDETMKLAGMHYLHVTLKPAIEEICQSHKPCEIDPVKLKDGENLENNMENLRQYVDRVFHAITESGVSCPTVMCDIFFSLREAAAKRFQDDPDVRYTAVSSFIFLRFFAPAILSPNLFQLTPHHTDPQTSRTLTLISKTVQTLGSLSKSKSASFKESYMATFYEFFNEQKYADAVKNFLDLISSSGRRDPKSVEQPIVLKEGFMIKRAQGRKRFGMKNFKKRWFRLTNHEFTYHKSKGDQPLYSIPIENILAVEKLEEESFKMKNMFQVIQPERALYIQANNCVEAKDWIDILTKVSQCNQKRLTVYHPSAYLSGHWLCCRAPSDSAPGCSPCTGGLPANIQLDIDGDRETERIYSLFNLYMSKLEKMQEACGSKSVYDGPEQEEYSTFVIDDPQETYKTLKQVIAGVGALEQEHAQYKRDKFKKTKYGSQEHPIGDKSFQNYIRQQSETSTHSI

[3] = target: T1, BTK; details: human platelet NP40 lysate; competes with bead-bound PIP3 (about 800 nM); pH 7.4, 4 °C, 5 mM EDTA, 5 mM EGTA; remark: listed apart in the source

Row | Structure (SMILES) | inhibition of extraction by PIP3 beads [1] | inhibition at 40 µM [2] [%] | inhibition of extraction by PIP3 beads at 40 μM [3]
1 | O=P(O)(O)OC1[C@H](O)[C@H](OP(=O)(O)O)C(OP(=O)(O)O)[C@H](OP(=O)(O)O)[C@H]1O (stereo partly drawn) [IP4] | IP4 also reduced extraction of the PH domain–bearing tyrosine kinase BTK | > 90 | –
2 | CCCCCCCC(=O)OC[C@H](COP(=O)(O)O[C@H]1[C@H](O)[C@@H](OP(=O)(O)O)[C@H](OP(=O)(O)O)[C@@H](OP(=O)(O)O)[C@H]1O)OC(=O)CCCCCCC [DiC8-PIP3] | – | – | exogenously added DiC8-PIP3 was marginally less potent at competing with PIP3 beads
